The source of these data is patent US20040052837A1, “Lipid conjugated anti-cancer drugs and methods of use thereof” (priority 2002, published 2004).

The subject of one data set is T27A cells. Briefly: Inhibition of T27A cell proliferation by [3H]thymidine incorporation. The class given is cell-based, murine. As for the experimental part:
The murine non-T non-B leukemia cell line T27A (ATCC, Rockville, Md., USA) was cultured in RPMI 1640 medium (Gibco/BRI, Gaithersburg, Md.) supplemented with 25 mM HEPES buffer, 2 mM glutamine, 100 U penicillin/ml, 100 μg streptomycin/ ml and 2 or 10% bovine calf serum (Hyclone, Logan, Utah) in a humidified 5% CO2 atmosphere. Cell viability was determined by Trypan blue exclusion.
DHA (NuChek Prep, Elysan, Minn.) was introduced into RPMI 1640 medium supplemented with 1% (w/v) fatty acid-free bovine serum albumin (Sigma) as described by Spector and Hoak (33) with modifications we have reported (34).
Liposomes were prepared fresh for each use. The bulk of the lipids was 18:0, 18:1 PC (up to 90 mol %), with 10 mol % 18:0, 18:1 PE added to augment fusion between liposomes and the cell-surface membrane. The control contained no additional lipids; the experimental groups contained up to an additional 15 mol % 18:0, 22:6 PC or up to 0.43 mol % 18:0, MTX-PC or 22:6, MTX-PC. The solvent was evaporated under nitrogen and the lipids dried under vacuum for 2 h. The lipids were rehydrated in RPMI medium, and multilamellar vesicles were prepared by vortexing 1 ml of lipids at a concentration of 2 mg/ml. Liposomes (small unilamellar vesicles) were created by sonicating the multilamellar vesicles for 15 min on ice under nitrogen with a Heat Systems W380 disruptor (Farmingdale, N.Y.) set at 1 s cycle time, 60% duty and 3-7% output. Liposome suspensions were centrifuged at low speed (3700 r.p.m.; 2300 g) to remove particulate material and sterile filtered through a 0.2-μm filter. An aliquot of each liposome preparation was tested by thin-layer chromatography to assure that hydrolysis had not occurred.
All concentrations given are final concentrations in the wells. […] Control liposomes were made from 1 mM 18:0, 18:1 PC/ 18:0, 18:1 PE (9/1, mol:mol). After 6 h of incubation, 0.5 μCi/well of [^3H]thymidine (2 Ci/mmol; Amersham, Arlington Heights, Ill.) was added and the incubation continued for an additional 18 h. Cells were then harvested onto glass fiber filters (PHD Cell Harvester; Cambridge Technology, Watertown, Mass.) and the radioactivity present in DNA on the filters was measured by liquid scintillation counting.
The IC50 for each agent alone was determined by non-linear curve fitting with the software package SigmaPlot (SPSS, Chicago, Ill.).

For data set [1] the following is noted: (35); cited from earlier work.
The test system of data set [2] is several different cell types. To be noted: variety of assays in vitro (11, 37-39); cited from earlier work.
In another data set the test system is human neoplastic cells. To be noted: (1); cited from earlier work.
For data set [3] the following is noted: previous study (26); cited from earlier work.
[4] abbreviates: lipid included in liposomes of 1 mM 18:0,18:1 PC/18:0,18:1 PE (9:1), 24 h, read-out: IC50, inhibition of proliferation.

Structures are written as SMILES. Read-outs that look alike come from different tables or passages of the source.

As for `CC/C=C\C/C=C\C/C=C\C/C=C\C/C=C\C/C=C\CCC(=O)O` [DHA, docosahexaenoic acid], the “% of maximal proliferation” value with T27A cells (220 μM DHA alone) is recorded as 57%. Also, in the data set with T27A cells (Mus musculus, [DHA] 25 μM), the predicted % inhibition at 25 µM was 4.9%. In addition, the predicted % inhibition at 50 µM in the data set with T27A cells (Mus musculus, [DHA] 50 μM) is 9.8%. Also, the predicted % inhibition at 100 µM in the data set on T27A cells (Mus musculus, [DHA] 100 μM) was 19.7%. Further, the predicted % inhibition at 150 µM in the data set on T27A cells (Mus musculus, [DHA] 150 μM) is 29.5%. In the data set with T27A cells (Mus musculus, [DHA] 200 μM), the predicted % inhibition at 200 µM is 39.3%. Besides, in the data set on T27A cells (Mus musculus, albumin-bound DHA not conjugated to phospholipids, 24 h, 2% serum, read-out: IC50, inhibition of [3H]thymidine incorporation), the IC50 turned out to be 211000 nM. In the data set with T27A cells (albumin versus ethanol delivery), the “IC50 with albumin delivery relative to IC50 for DHA delivered in ethanol” value was “about 5 times”.

For `CN(Cc1cnc2nc(N)nc(N)c2n1)c1ccc(C(=O)N[C@@H](CCC(=O)O)C(=O)O)cc1` [MTX, methotrexate], the “% of maximal proliferation” value in the data set on T27A cells (30 nM MTX alone) turned out to be 52%. In addition, the IC50 with T27A cells (Mus musculus, 24 h, read-out: IC50 (dose for 50% inhibition of proliferation)) is 30.6 nM. Further, the “Inhibition (Predicted; %)” value in the data set on T27A cells ([MTX] 2.7 nm) is given as 4.3%; with T27A cells ([MTX] 9.5 nm), 15.2%; in the data set with T27A cells ([MTX] 16.5 nm), 26.3%; in the data set with T27A cells ([MTX] 23.3 nm) it was 37.2%; in the data set with T27A cells ([MTX] 26.7 nm), 42.6%. Moreover, the “pKa of α-carboxyl group” value in data set [1] is given as 3.35. Also, the “range of inhibitory doses reported” value in data set [2] is 15 to 240 nM. Further, in the data set with human neoplastic cells, the “level at which toxic” value was 20 nM.

In the case of `CC/C=C\C/C=C\C/C=C\C/C=C\C/C=C\C/C=C\CCC(=O)OC[C@H](COP(=O)([O-])OCC[N+](C)(C)C)OC(=O)CC[C@H](NC(=O)c1ccc(N(C)Cc2cnc3nc(N)nc(N)c3n2)cc1)C(=O)O` [22:6, MTXγ-PC], the IC50 with T27A cells (setting [4]) is 1190 nM. Moreover, in the data set with T27A cells (liposomes with up to 0.43 mol % (4.2 μM) MTXγ-PC, 24 h), the “potency as inhibitor of cell proliferation relative to 18:0, MTXγ-PC” value was “more potent inhibitor of cell proliferation than 18:0, MTXγ-PC”. Moreover, the “inhibition relative to 18:0, MTXγ-PC” value with T27A cells (low concentrations, below 1.5 μM, in liposomes) was “significantly more inhibitory than 18:0, MTXγ-PC”.

On to `CCCCCCCCCCCCCCCCCC(=O)OC[C@H](COP(=O)([O-])OCC[N+](C)(C)C)OC(=O)CC[C@H](NC(=O)c1ccc(N(C)Cc2cnc3nc(N)nc(N)c3n2)cc1)C(=O)O` [18:0, MTXγ-PC], for which, in the data set on T27A cells (setting [4]), the IC50 came out at 2110 nM.

Consider `CC/C=C\C/C=C\C/C=C\C/C=C\C/C=C\C/C=C\CCC(=O)OC[C@H](COP(=O)([O-])OCC[N+](C)(C)C)OC(=O)CC/C=C\C/C=C\C/C=C\C/C=C\C/C=C\C/C=C\CC` [22:6, 22:6 PC, 1,2-didocosahexaenoyl-sn-glycero-3-phosphocholine], for which the direct cytotoxicity result in data set [3] is “comparable to 18:0, 22:6 PC”.
